Reference: PMC3079579, “Solution Structure of a Repeated Unit of the ABA-1 Nematode Polyprotein Allergen of Ascaris Reveals a Novel Fold and Two Discrete Lipid-Binding Sites” (PLoS Neglected Tropical Diseases, 2011)

Tests used:
[1] = target: T1, ABA-1A (rABA-1A, RP-ABA-1A; As-NPA-1A) (Ascaris suum, UniProt Q06811); test: fluorescence titration (probe enhancement, […] nm); format: binding
[2] = target: T1, ABA-1A (rABA-1A, RP-ABA-1A; As-NPA-1A); test: fluorescence blue-shift of probe; format: binding; settings: PBS pH 7.3, 25 °C, data not shown

T1 sequence (Q06811 534-662): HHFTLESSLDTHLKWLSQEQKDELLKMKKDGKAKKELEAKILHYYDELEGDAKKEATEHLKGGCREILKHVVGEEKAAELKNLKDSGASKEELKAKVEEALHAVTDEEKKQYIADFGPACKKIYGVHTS

SMILES	Kd [1] [µM]	fluorescence blue-shift of probe [2]
CN(C)c1cccc2c(S(=O)(=O)NCCCCCCCCCCC(=O)O)cccc12 [DAUDA, 11-(((5-(dimethylamino)-1-napthalenyl)sulfonyl)amino)undecanoic acid]	0.11	–
CCCCCCC(NS(=O)(=O)c1cccc2c(N(C)C)cccc12)C(=O)O (racemic) [DACA, dansyl-α-aminooctanoic acid]	–	A similar blue-shift (data not shown) was observed using dansyl-DL-α-caprylic acid (DACA)
